Assay: Stability of solid of type-G fenolamine crystal form (influencing factor experiment)
Type: physicochemical
Conditions: open watch glass; 60° C., 40° C., and 25° C., relative humidity 90%±5%, illumination 4500 lx±500 lx; 10 days, sampled Days 0, 5, 10; powder X-ray diffraction and gas chromatography
Experimental: Type-G fenolamine crystal form samples were placed in open clean watch glasses, and kept under conditions of a high temperature of 60° C., a high temperature of 40° C., and 25° C., a relative humidity of 90%±5%, and illumination at 4500 lx±500 lx for 10 days, and samples were taken on Days 0, 5, and 10. Powder X-ray diffraction (with a resultant pattern consistent to that in FIG. 1) and gas chromatography means were used for analysis. […] All of the products from Example 1 were subjected to this test and achieved the same effect.

## COc1ccc(OC)c(/C(=C\c2ccc(O)c(OC)c2)C(=O)NCCc2ccc(O)cc2)c1 [type-G fenolamine crystal form, trans-2-(2,5-dimethoxyphenyl)-3-(4-hydroxy-3-methoxyphenyl)-N-(4-hydroxyphenylethyl)-acrylamide]
  stability of the crystal form under conditions of high temperature, high humidity and light illumination: stable
